Results: patent US9067949B2, “Benzofuro[3,2-c] pyridines and related analogs as serotonin sub-type 6 (5-HT6) modulators for the treatment of obesity, metabolic syndrome, cognition and schizophrenia” (Albany Molecular Research, Inc., priority 2011, dated 2015)
Where a name gives a salt, the structure may show the parent alone. Read-outs that look alike come from different tables or passages of the source.

Target: human 5-HT6 receptor (Homo sapiens (Human), UniProt P50406)
Experiment: 5-HT6 radioligand binding assay (SPA format, [N-methyl-3H]-LSD)
Settings: human 5-HT6 receptor membranes, 10 nM [N-methyl-3H]-LSD, Ki by Cheng-Prusoff, read-out: human 5HT6 Ki
Protocol: The relative affinities of the various compounds for the 5-HT6 receptor were measured in a radioligand binding assay, using a scintillation proximity assay (SPA) format.
For binding analysis vs. the human receptor, samples were incubated in 50 mM Tris-HCl, pH 7.5, 5 mM MgCl2, 1 mM EDTA (4% DMSO final) with 10 nM [N-methyl-^3H]-LSD (Perkin Elmer), 2.5 ng of human 5-HT6 receptor membranes (Millipore) and 50 μg SPA beads (PVT-PEI-WGA, GE Healthcare) per well in a final volume of 0.2 mL. […] Binding reactions were performed in PicoPlate96 microtiter plates (Perkin Elmer) by consecutively adding 50 μL of each competing compound or buffer, SPA beads, radioligand and 5-HT6 receptor membranes. After an overnight incubation at room temperature on a Nutator mixer, plates were centrifuged for 15 min at 1,500 rpm, followed by incubation in the dark for 10 min. […] Total binding control contained compound dilution buffer only; nonspecific binding is determined in the presence of 100 μM 5-hydroxytryptamine. Specific binding was determined by subtracting nonspecific binding from total binding.
All experiments were performed in duplicate using ten concentrations of competing ligand, with clozapine included as a control in every run. IC50 values were determined from specific binding data using XLfit4.1 curve fitting software from IDBS Ltd. The inhibition constant (Ki) was calculated using the Cheng-Prusoff equation: (Ki=IC50/(1+(L/KD)), where L=concentration of radioligand in the assay, and KD=affinity of the radioligand for the receptor.

human 5-HT6 receptor, sequence (P50406 whole entry): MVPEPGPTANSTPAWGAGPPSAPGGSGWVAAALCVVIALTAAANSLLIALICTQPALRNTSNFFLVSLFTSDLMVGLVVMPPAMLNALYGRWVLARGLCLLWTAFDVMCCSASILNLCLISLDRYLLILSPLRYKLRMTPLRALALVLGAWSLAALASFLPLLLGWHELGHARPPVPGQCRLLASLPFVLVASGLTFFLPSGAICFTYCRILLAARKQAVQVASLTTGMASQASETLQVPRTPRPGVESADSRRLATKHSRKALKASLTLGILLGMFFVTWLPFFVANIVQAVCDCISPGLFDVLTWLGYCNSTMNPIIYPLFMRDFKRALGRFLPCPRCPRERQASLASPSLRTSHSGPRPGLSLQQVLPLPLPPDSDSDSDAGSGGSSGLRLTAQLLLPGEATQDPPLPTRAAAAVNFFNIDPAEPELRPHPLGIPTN

Structure (SMILES) | Ki (hydrochloride) [nM] | Ki [nM]
CC1NCCc2oc3c(Cl)cc(S(=O)(=O)c4ccccc4)cc3c21 (single isomer, unassigned; (-)) [Example 82b, (−) 6-chloro-1-methyl-8-(phenylsulfonyl)-1,2,3,4-tetrahydrobenzofuro[3,2-c]pyridine hydrochloride] | 0.15 | –
O=S(=O)(c1ccccc1)c1cc(Cl)c2oc3c(c2c1)CN(C1COC1)CC3 [Example 150] | – | 76
COc1cc(S(=O)(=O)c2cc(F)cc(Cl)c2)cc2c3c(oc12)CCNC3 [Example 188] | – | 0.11
O=S(=O)(c1ccccc1)c1cc(Cl)c2oc3c(c2c1)CN(CCC(F)(F)F)CC3 [Example 114] | – | 19
O=S(=O)(c1ccccc1)c1cc(N2CCOCC2)c2oc3c(c2c1)CNCC3 [Example 228] | – | 47
N#Cc1cc(S(=O)(=O)c2cc(F)cc(F)c2)cc2c3c(oc12)CCNC3 [Example 208] | – | 50
COc1cc(S(=O)(=O)c2ccccc2CO)cc2c3c(oc12)CCNC3 [Example 159] | – | 1.5
COc1cc(S(=O)(=O)c2ccc([C@@H](C)O)cc2)cc2c3c(oc12)CCNC3 [Example 172] | – | 1.9
O=S(=O)(c1ccc(F)cc1)c1cc(F)c2oc3c(c2c1)CNCC3 [Example 207] | – | 44
O=S(=O)(c1cc(Cl)c2oc3c(c2c1)CNCC3)n1ccc2ccccc21 [Example 51, 8-(1H-Indol-1-ylsulfonyl)-6-chloro-1,2,3,4-tetrahydrobenzofuro[3,2-c]pyridine hydrochloride] | – | 0.2
[O-][S+](c1ccccc1)c1cc(Cl)c2oc3c(c2c1)CNCC3 (stereo not drawn) [Example 232] | – | 29
COc1cc(Oc2ccccc2)cc2c3c(oc12)CCNC3 [Example 237] | – | 645
O=S(=O)(c1cc(Cl)c2oc3c(c2c1)CNCC3)c1csc2ccccc12 [Example 133] | – | 0.26
COc1cc(S(=O)(=O)c2cccc(OC(F)(F)F)c2)cc2c3c(oc12)CCNC3 [Example 168] | – | 0.19
CCN1CCc2oc3c(Cl)cc(S(=O)(=O)c4ccccc4)cc3c2C1 [Example 117] | – | 1.2
COc1cc(S(=O)(=O)c2ccc(C(F)(F)F)cc2)cc2c3c(oc12)CCNC3 [Example 162] | – | 0.49
Cn1cc(S(=O)(=O)c2cc(C#N)c3oc4c(c3c2)CNCC4)c2ccccc21 [Example 211] | – | 0.4
C[C@H](O)c1cccc(S(=O)(=O)c2cc(Cl)c3oc4c(c3c2)CNCC4)c1 [Example 138] | – | 5.1
O=S(=O)(c1cc(F)cc(F)c1)c1cc(Cl)c2oc3c(c2c1)CNCC3 [Example 129] | – | 9.9
O=S(=O)(c1ccc(CO)cc1)c1cc(Cl)c2oc3c(c2c1)CNCC3 [Example 72, (4-((6-chloro-1,2,3,4-tetrahydrobenzofuro[3,2-c]pyridin-8-yl)sulfonyl)phenyl)methanol hydrochloride] | – | 12
C[C@H](O)c1ccc(S(=O)(=O)c2cc(Cl)c3oc4c(c3c2)CNCC4)cc1 [Example 140] | – | 16
COc1cc(S(=O)(=O)c2cccc(OC(F)F)c2)cc2c3c(oc12)CCNC3 [Example 160] | – | 0.11

Structure (SMILES) | Ki (hydrochloride) [nM] | Ki [nM]
O=S(=O)(c1cccc(CO)c1)c1cc(Cl)c2oc3c(c2c1)CNCC3 [Example 110] | – | 4.4
N#Cc1cc(S(=O)(=O)c2ccc(Cl)cc2)cc2c3c(oc12)CCNC3 [Example 212] | – | 8.8
CNC(=O)c1cc(S(=O)(=O)c2ccccc2)cc2c3c(oc12)CCNC3 [Example 78, N-methyl-8-(phenylsulfonyl)-1,2,3,4-tetrahydrobenzofuro[3,2-c]pyridine-6-carboxamide hydrochloride] | – | 607
O=S(=O)(c1ccc(C2CCO2)cc1)c1cc(Cl)c2oc3c(c2c1)CNCC3 (stereo not drawn) [Example 126] | – | 10
Cc1cc(S(=O)(=O)c2cccc(C(F)(F)F)c2)cc2c3c(oc12)CCNC3 [Example 201] | – | 0.22
Cn1ccc(-c2cc(S(=O)(=O)c3ccccc3)cc3c4c(oc23)CCNC4)n1 [Example 227] | – | 60
COc1cc(S(=O)(=O)c2cccc([C@H](C)O)c2)cc2c3c(oc12)CCNC3 [Example 175] | – | 1.2
COc1cc(S(=O)(=O)c2ccc3[nH]ccc3c2)cc2c3c(oc12)CCNC3 [Example 70, 8-(1H-indol-5-ylsulfonyl)-6-methoxy-1,2,3,4-tetrahydrobenzofuro[3,2-c]pyridine hydrochloride] | – | 0.083
CC(O)CN1CCc2oc3c(Cl)cc(S(=O)(=O)c4ccccc4)cc3c2C1 (stereo not drawn) [Example 151] | – | 1.7
COc1cc(S(=O)(=O)c2ccccc2F)cc2c3c(oc12)CCNC3 [Example 163] | – | 0.19
NC(=O)c1cc(S(=O)(=O)c2ccccc2)cc2c3c(oc12)CCNC3 [Example 222] | – | 307
CCOc1cc(S(=O)(=O)c2ccccc2)cc2c3c(oc12)CCNC3 [Example 215] | – | 0.11
COCCN1CCc2oc3c(Cl)cc(S(=O)(=O)c4ccccc4)cc3c2C1 [Example 149] | – | 1.6
Cc1cc(S(=O)(=O)c2ccccc2)cc2c3c(oc12)CCNC3 [Example 53, 6-Methyl-8-(phenylsulfonyl)-1,2,3,4-tetrahydrobenzofuro[3,2-c]pyridine hydrochloride] | – | 0.22
COc1cc(S(=O)(=O)c2cccc(Cl)c2)cc2c3c(oc12)CCNC3 [Example 190] | – | 0.05
CN(C)CC(=O)N1CCc2oc3c(Cl)cc(S(=O)(=O)c4ccccc4)cc3c2C1 [Example 145] | – | 66
O=S(=O)(c1ccc(F)cc1)c1cc(Cl)c2oc3c(c2c1)CNCC3 [Example 128] | – | 3
O=S(=O)(c1ccccc1)c1cc(Cl)c2oc3c(c2c1)C(CF)NCC3 (stereo not drawn) [Example 87, 6-chloro-1-fluoromethyl-8-phenylsulfonyl-1,2,3,4-tetrahydrobenzofuro[3,2-c]pyridine hydrochloride] | – | 4
CC(O)c1ccccc1S(=O)(=O)c1cc(Cl)c2oc3c(c2c1)CNCC3 (stereo not drawn) [Example 135] | – | 20
O=S(=O)(c1ccc2[nH]ccc2c1)c1cc(Cl)c2oc3c(c2c1)CNCC3 [Example 143] | – | 0.13
COc1cc(S(=O)(=O)c2ccc(OC(F)F)cc2)cc2c3c(oc12)CCNC3 [Example 164] | – | 0.4
O=S(=O)(c1cc(F)cc(Cl)c1)c1cc(Cl)c2oc3c(c2c1)CNCC3 [Example 125] | – | 2.3

Structure (SMILES) | Ki (hydrochloride) [nM] | Ki [nM]
COc1cc(S(=O)(=O)c2ccc(C(C)(C)O)cc2)cc2c3c(oc12)CCNC3 [Example 176] | – | 0.74
COc1cc(S(=O)(=O)c2cccc(C(F)(F)F)c2)cc2c3c(oc12)CCNC3 [Example 167] | – | 0.13
COc1cc(S(=O)(=O)c2cccc([C@@H](C)O)c2)cc2c3c(oc12)CCNC3 [Example 174] | – | 0.69
C=C(C)c1cccc(S(=O)(=O)c2cc(Cl)c3oc4c(c3c2)CNCC4)c1 [Example 157] | – | 0.66
O=S(=O)(c1cc(Cl)cc(Cl)c1)c1cc(Cl)c2oc3c(c2c1)CNCC3 [Example 130] | – | 6
O=S(=O)(c1ccccc1)c1cc(OCCO)c2oc3c(c2c1)CNCC3 [Example 217] | – | 1.6
O=S(=O)(c1ccccc1)c1cc(CO)c2oc3c(c2c1)CNCC3 [Example 74, (8-(phenylsulfonyl)-1,2,3,4-tetrahydrobenzofuro[3,2-c]pyridin-6-yl)methanol hydrochloride] | – | 13
C[C@@H](O)c1cccc(S(=O)(=O)c2cc(Cl)c3oc4c(c3c2)CNCC4)c1 [Example 139] | – | 2.7
O=S(=O)(c1cccc(-n2cccn2)c1)c1cc(Cl)c2oc3c(c2c1)CNCC3 [Example 103] | – | 2.2
O=S(=O)(c1ccc2c(c1)COC2)c1cc(Cl)c2oc3c(c2c1)CNCC3 [Example 156] | – | 7.6
Cc1cc(S(=O)(=O)c2ccccc2F)cc2c3c(oc12)CCNC3 [Example 194] | – | 0.39
O=S(=O)(c1ccccc1)c1cc(OC(F)(F)F)c2oc3c(c2c1)CNCC3 [Example 214] | – | 0.88
COc1cc(S(=O)(=O)c2ccc(C3CCOC3)cc2)cc2c3c(oc12)CCNC3 (stereo not drawn) [Example 180] | – | 2.2
COc1cc(S(=O)(=O)c2cc(F)cc(F)c2)cc2c3c(oc12)CCNC3 [Example 186] | – | 0.33
O=S(=O)(c1cncc(Cl)c1)c1cc(Cl)c2oc3c(c2c1)CNCC3 [Example 119] | – | 20
O=S(=O)(c1cccc(Cl)c1)c1cc(Cl)c2oc3c(c2c1)CNCC3 [Example 46, 6-Chloro-8-(3-chlorophenylsulfonyl)-1,2,3,4-tetrahydrobenzofuro[3,2-c]pyridine hydrochloride] | – | 0.35
CN(C)C(=O)c1cc(S(=O)(=O)c2ccccc2)cc2c3c(oc12)CCNC3 [Example 223] | – | 1110
CN(C)C(=O)CN1CCc2oc3c(Cl)cc(S(=O)(=O)c4ccccc4)cc3c2C1 [Example 148] | – | 45
COc1cc(S(=O)(=O)c2cccc(C(C)O)c2)cc2c3c(oc12)CCNC3 (stereo not drawn) [Example 173] | – | 0.6
O=S(=O)(c1ccccc1)c1cc(Cn2ccnc2)c2oc3c(c2c1)CNCC3 [Example 229] | – | 64
O=S(=O)(c1ccccc1)c1cc(C(F)(F)F)c2oc3c(c2c1)CNCC3 [Example 205] | – | 2.1
Clc1cc(Cc2ccccc2)cc2c3c(oc12)CCNC3 [Example 236] | – | 24
